Structures can show the parent of a compound that is named as a salt.

Sequence of RIPK1 (recombinant GST-RIPK1 kinase domain, residues 1-327) (Q13546 1-327): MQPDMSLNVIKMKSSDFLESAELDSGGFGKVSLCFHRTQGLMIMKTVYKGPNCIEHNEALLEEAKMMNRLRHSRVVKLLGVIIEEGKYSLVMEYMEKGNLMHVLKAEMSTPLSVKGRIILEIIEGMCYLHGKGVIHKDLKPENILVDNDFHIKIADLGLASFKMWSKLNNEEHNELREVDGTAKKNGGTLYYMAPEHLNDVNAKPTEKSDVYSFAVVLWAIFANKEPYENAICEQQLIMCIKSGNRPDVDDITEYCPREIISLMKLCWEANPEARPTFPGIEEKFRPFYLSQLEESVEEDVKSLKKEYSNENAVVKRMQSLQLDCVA

For this assay, the target named is RIPK1 (recombinant GST-RIPK1 kinase domain, residues 1-327) (Homo sapiens (Human), UniProt Q13546). Description: RIPK1-ADP-Glo Enzymatic Assay. It is filed as biochemical. As to conditions: ADP-Glo; 25 nM GST-RIPK1, 300 μM ATP; assay lower limit ~25 nM; read-out: RIPK1 V0 Ec50. Here is the method:
RIPK1-ADP-Glo Enzymatic Assay
The enzymatic activity of RIPK1 is measured using an assay derived from ADP-Glo kit (TMPromega), which provides a luminescent-based ADP detection system. Specifically, the ADP generated by RIPK1 kinase is proportionally detected as luminescent signals in a homogenous fashion. In this context, the assessment of the inhibitory effect of small molecules (EC50) is measured by the effectiveness of the compounds to inhibit the ATP to ADP conversion by RIPK1.
In this assay, the potency (EC50) of each compound was determined from a ten-point (1:3 serial dilution; top compound concentration of 100000 nM) titration curve using the following outlined procedure. The assay bottom or lower limit of confidence is ˜25 nM. To each well of a white ProxiPlus 384 well-plate, 30 nL of compound (1% DMSO in final assay volume of 3 μL) was dispensed, followed by the addition of 2 μL of 1×assay buffer (25 mM Hepes 7.3, 20 mM MgCl2, 50 mM NaCl, 1 mM DTT, 0.005% Tween20, and 0.02% BSA) containing 37.5 nM of GST-RIPK1 (recombinant GST-RIPK1 kinase domain (residues 1-327) enzyme produced from baculovirus-transfected Sf21 cells: MW=62 kDa). Plates were placed in an ambient temperature humidified chamber for a 30-minute pre-incubation with compound. Subsequently, each reaction was initiated by the addition of 1 μL 1×assay buffer containing 900 μM ATP and […] dephosphorylated-MBP substrate. The final reaction in each well of 3 μL consists of 25 nM of GST-RIPK1, 300 μM ATP, and 3 μM dephosphorylated-MBP. Kinase reactions were allowed to proceed for 150 minutes prior to adding ADP-Glo reagents per Promega's outlined kit protocol. Dose-response curves were generated by plotting percent effect (% product conversion; Y-axis) vs. Log10 compound concentrations (X-axis). EC50 values were calculated using a non-linear regression, four-parameters sigmoidal dose-response model.
Consider `O=C(c1cccc(F)c1F)N1CCC2(CC1)O[C@@H]1CC[C@@H](c3cc(F)cc(F)c3)N1C2=O` [Example 5.3, (5′S,7a′R)-1-(2,3-difluoro-benzene-1-carbonyl)-5′-(3,5-difluorophenyl)tetra-hydro3′H-spiro[piperidine-4,2′-pyrrolo[2,1-b][1,3]oxazol]-3′-one], for which the EC50 (usually the concentration at which the effect is half-maximal) was less than 25 nM.
The result for `Cc1nc(N2CCC3(CC2)O[C@@H]2CC[C@@H](c4ccccc4)N2C3=O)ncc1-c1ncn(C)n1` [Example 21.4, (5′S,7a′R)-1-[4-methyl-5-(1-methyl-1H-1,2,4-triazol-3-yl)pyrimidin-2-yl]-5′-phenyltetrahydro-3′H-spiro[piperidine-4,2′-pyrrolo[2,1-b][1,3]oxazol]-3′-one] reads 117 nM; that for `O=C(c1cncnc1)N1CCC2(CC1)O[C@@H]1CC[C@@H](c3cc(F)cc(F)c3)N1C2=O` [Example 6.40, (5′S,7a′R)-5′-(3,5-difluorophenyl)-1-(pyrimidine-5-car-bonyl)tetrahydro-3′H-spiro[piperidine-4,2′-pyrrolo[2,1-b][1,3]oxazol]-3′-one], 436 nM.
The result for `O=C(c1ccccc1)N1CCC2(CC1)O[C@@H]1CC[C@@H](c3cccc(F)c3F)N1C2=O` [Example 17.10, (5′S,7a′R)-1-benzoyl-5′-(2,3-difluorophenyl)tetrahydro-3′H-spiro[piperidine-4,2′-pyrrolo[2,1-b]oxazol]-3′-one] reads less than 25 nM; that for `O=C(c1cnc(C(F)(F)F)cn1)N1CCC2(CC1)O[C@@H]1CC[C@@H](c3cc(F)cc(F)c3)N1C2=O` [Example 6.1, (5′S,7a′R)-5′-(3,5-Difluorophenyl)-1-(5-(trifluoromethyl)pyrazine-2-carbonyl)tetrahydro-3′H-spiro[piperidine-4,2′-pyrrolo[2,1-b]oxazol]-3′-one], 388 nM.
The result for `Cc1nccnc1[C@@H]1CC[C@H]2OC3(CCN(c4ccnc5c(F)cnn45)CC3)C(=O)N21` [Example 4.144, (5′S,7a′R)-1-(3-fluoropyrazolo[1,5-a]pyrimidin-7-yl)-5′-(3-methylpyrazin-2-yl)tetrahydro-3′H-spiro[piperidine-4,2′-pyrrolo[2,1-b] [1,3]oxazol]-3′-one] reads 41.7 nM; that for `O=C1N2[C@@H](CC[C@H]2c2cc(F)cc(F)c2)OC12CCN(c1ccc(F)c3ccnn13)CC2` [Example 16.1, (5′S,7a′R)-5′-(3,5-difluorophenyl)-1-(4-fluoropyrazolo[1,5-a]pyridin-7-yl)tetrahydro-3′H-spiro[piperidine-4,2′-pyrrolo[2,1-b]oxazol]-3′-one, TFA salt], less than 25 nM.
For the molecule `CC(C)(O)C#Cc1ccc(C(=O)N2CCC3(CC2)O[C@@H]2CC[C@@H](c4cc(F)cc(F)c4)N2C3=O)cc1` [Example 5.26, (5′S,7a′R)-5′-(3,5-difluoro-phenyl)-1-(4-(3-hydroxy-3-methylbut-1-yn-1-yl)-benzoyl)tetrahydro-3′H-spiro[piperidine-4,2′-pyrrolo[2,1-b]oxazol]-3′-one], the EC50 came out at 737 nM.
Under `O=C1N2[C@@H](CC[C@H]2c2ccccc2)OC12CCN(c1nnc(C(F)(F)F)s1)CC2` [Example 11.27, (5′S,7a′R)-5′-phenyl-1-[5-(trifluoromethyl)-1,3,4-thiadiazol-2-yl]tetrahydro-3′H-spiro[piperidine-4,2′-pyrrolo[2,1-b][1,3]oxazol]-3′-one] stands 757 nM.
On to `COC(=O)c1cnc(N2CCC3(CC2)O[C@@H]2CC[C@@H](c4ccccc4)N2C3=O)nc1C` [Example 4.189, methyl 4-methyl-2-[(5′S,7a′R)-3′-oxo-5′-phenyltetrahydro-1H,3′H-spiro[piperidine-4,2′-pyrrolo[2,1-b] [1,3]oxazol]-1-yl]pyrimidine-5-carboxylate], for which the EC50 is 25.4 nM.
Under `CC(F)c1cc(N2CCC3(CC2)O[C@@H]2CC[C@@H](c4ccccc4)N2C3=O)ncn1` (stereo partly drawn) [Example 4.214, (5′S,7a′R)-1-[6-(1-fluoroethyl)pyrimidin-4-yl]-5′-phenyltetrahydro-3′H-spiro[piperidine-4,2′-pyrrolo[2,1-b] [1,3]oxazol]-3′-one] stands 128 nM; under `COc1ccc(N2CCC3(CC2)O[C@@H]2CC[C@@H](c4ccccc4)N2C3=O)nc1OC` [Example 11.31, (5′S,7a′R)-1-(5,6-dimethoxypyridin-2-yl)-5′-phenyltetrahydro-3′H-spiro[piperidine-4,2′-pyrrolo[2,1-b][1,3]oxazol]-3′-one], less than 25 nM; under `O=C1N2[C@@H](CC[C@H]2c2ccccc2F)OC12CCN(c1ccnc(-c3cnn(C(F)F)c3)c1)CC2` [Example 10.4, (5′S,7a′R)-1-{2-[1-(difluoromethyl)-1H-pyrazol-4-yl]pyridin-4-yl}-5′-(2-fluorophenyl)tetrahydro-3′H-spiro[piperidine-4,2′-pyrrolo[2,1-b][1,3]oxazol]-3′-one], less than 25 nM.
The result for `O=C(c1cc(C(F)(F)F)cnn1)N1CCC2(CC1)O[C@@H]1CC[C@@H](c3cc(F)cc(F)c3)N1C2=O` [Example 6.34, (5′S,7a′R)-5′-(3,5-difluorophenyl)-1-[5-(trifluoromethyl)pyrid-azine-3-carbonyl] tetrahydro-3′H-spiro [piperidine-4,2′-pyrrolo[2,1-b][1,3]oxazol]-3′-one] reads 550 nM; that for `Cc1ncc([C@@H]2CC[C@H]3OC4(CCN(C(=O)c5ccccc5)CC4F)C(=O)N32)cc1F` (stereo partly drawn) [Example 2.10, (5′S,7a′R)-1-(benzenecarbonyl)-3-fluoro-5′-(5-fluoro-6-methylpyridin-3-yl)tetrahydro-3′H-spiro[piperidine-4,2′-pyrrolo[2,1-b][1,3]oxazol]-3′-one], 136 nM.
Under `O=C(c1cccc(-c2nnco2)c1)N1CCC2(CC1)O[C@@H]1CC[C@@H](c3cc(F)cc(F)c3)N1C2=O` [Example 6.64, (5′S,7a′R)-5′-(3,5-difluorophenyl)-1-[3-(1,3,4-oxadiazol-2-yl)benzene-1-carbon-yl]tetrahydro-3′H-spiro[piperidine-4,2′-pyrrolo[2,1-b][1,3]-oxazol]-3′-one] stands less than 25 nM; under `O=C1N2[C@@H](CC[C@H]2c2ccccc2)OC12CN(c1ccc(C3CCC3)c3ccnn13)C2` [Example 18.3, (5′S,7a′R)-1-(4-cyclobutylpyrazolo[1,5-a]pyridin-7-yl)-5′-phenyltetrahydro-3′H-spiro[azetidine-3,2′-pyrrolo[2,1-b][1,3]oxazol]-3′-one], less than 25 nM; under `O=C1N2[C@@H](CC[C@H]2c2cc(F)cc(F)c2)OC12CCN(c1ccc(C3CCC3)c3ccnn13)CC2` [Example 18.1, (5′S,7a′R)-1-(4-Cyclobutylpyrazolo[1,5-a]pyridin-7-yl)-5′-(3,5-difluorophenyl)tetrahydro-3′H-spiro[piperidine-4,2′-pyrrolo[2,1-b]oxazol]-3′-one, TFA salt], 159 nM.
As to `N#Cc1cnc(N2CCC3(CC2)O[C@@H]2CC[C@@H](c4cccc(F)c4)N2C3=O)c(F)c1` [Example 4.50, 5-fluoro-6-[(5′S,7a′R)-5′-(3-fluorophenyl)-3′-oxotetrahydro-1H,3′H-spiro[piperidine-4,2′-pyrrolo[2,1-b] [1,3]oxazol]-1-yl]pyridine-3-carbonitrile], the EC50 is 30.7 nM.
The result for `O=C1N2[C@@H](CC[C@H]2c2ccccc2)OC12CN(c1cccc3ncnn13)C2` [Example 13.22, (5′S,7a′R)-1-([1,2,4]triazolo[1,5-a]pyridin-5-yl)-5′-phenyltetrahydro-3′H-spiro[azetidine-3,2′-pyrrolo[2,1-b]oxazol]-3′-one, TFA salt] reads 37.6 nM; that for `N#Cc1cnc(N2CCC3(CC2)O[C@@H]2CC[C@@H](c4ccccc4F)N2C3=O)n2ncnc12` [Example 4.242, 5-[(5′S,7a′R)-5′-(2-fluorophenyl)-3′-oxotetrahydro-1H,3′H-spiro[piperidine-4,2′-pyrrolo[2,1-b] [1,3]oxazol]-1-yl] [1,2,4]triazolo[1,5-c] pyrimidine-8-carbonitrile], less than 25 nM; that for `Cc1ccc(F)c(C(=O)N2CCC3(CC2)O[C@@H]2CC[C@@H](c4cc(F)cc(F)c4)N2C3=O)c1` [Example 6.5, (5′S,7a′R)-5′-(3,5-difluorophenyl)-1-(2-fluoro-5-methyl-benzene-1-carbonyl) tetrahydro-3′H-spiro [piperidine-4,2′-pyrrolo[2,1-b][1,3]oxazol]-3′-one], less than 25 nM.
As for `Cn1cccc1C(=O)N1CCC2(CC1)O[C@@H]1CC[C@@H](c3cc(F)cc(F)c3)N1C2=O` [Example 5.48, (5′S,7a′R)-5′-(3,5-difluoro-phenyl)-1-(1-methyl-1H-pyrrole-2-carbonyl)tetra-hydro-3′H-spiro[piperidine-4,2′-pyrrolo[2,1-b]oxazol]-3′-one], the 50% effective concentration (EC50) is 42.2 nM.

Source of the values: US12180226B2, “Spirotricycle RIPK1 inhibitors and methods of uses thereof” (Merck Sharp & Dohme LLC, priority 2021, dated 2024).
